The values below come from patent publication US6251898A, “Medical use of fluorenone derivatives for treating and preventing brain and spinal injury” (Questcor Pharmaceuticals, Inc., priority 1999, dated 2001).

The structures appear in SMILES notation.

This assay deals with UC11-MG human astrocytoma cells. The experiment in a line: D-aspartate (excitotoxin) release by hypo-osmotically stressed astrocytoma cells. The format is cell-based. The conditions noted are these: for IC50: Homo sapiens, UC11MG, hypo-osmotic stress, about 145 mOsm, AUC-based, read-out: IC50 value (suppression of excitotoxin / D-aspartate release by stressed astrocyte cells); for Comparative potency: relative to L-644,711 (100% = benchmark); for Fold potency versus L-644,711: inhibition of aspartate release, compared to L-644,711. The text has this: The in vitro tests described in this example used UC11-MG human astrocytoma cells, obtained from the University of Cincinnati, and described in Liwnicz et al 1986 and Lomneth et al 1989. Cell culture reagents (including RPMI 1640, fetal bovine serum, trypsin, and gentamicin) were obtained from Gibco (Gaithersburg, Md.). Radiolabelled D-[2,3-^3 H]aspartate was obtained from Amersham Life Sciences (Buckinghamshire, England). ScintiVerse II scintillation fluid was obtained from Fisher Scientific (Pittsburgh, Pa.). All other chemicals were obtained from Sigma Chemical Co. (St. Louis, Mo.). Osmolarities of solutions were measured using the Advance DigiMatic Osmometer Model 3D II (Advanced Instruments Inc., Mass.).
The UC11-MG astrocytoma cells were cultured in 75 ml vented flasks at 37° C. inside a humidified incubator in 5% CO2 /95% air. The cells were grown in RPMI Medium 1640 supplemented with 10% fetal bovine serum and […] gentamicin. At approximately 90% confluence, the cells were detached and suspended using a 0.0625% trypsin solution in Buffer A (137 mM NaCl, 5.37 mM KCl, 5.55 mM glucose, 4.17 mM NaHCO3, and 0.54 mM EDTA disodium salt, pH 7.4). The cells were then plated onto 6-well tissue culture plates at a seeding ratio of 4 plates per flask and 4 ml of cell-media suspension per well. The plated cells were used in experiments the next day at approximately 90% confluence. Plates that appeared to be more than 95% confluent were not used, because higher levels of confluence led to uncontrollable differentials in exposure of the cells to culture media and labelled aspartate. All tests were performed in triplicate. All media collections were done at 5 minute intervals, using pipettes, and were followed by promptly loading fresh buffer into each well before any drying occurred. All buffer samples collected in this manner were loaded into scintillation vials, mixed with 5 ml scintillation fluid, and counted for 1 minute in a scintillation counter (Beckman LS8000, Fullerton, Calif.).
Prior to D-aspartate exposure, the wells were washed three times under sterile conditions with 3 ml of 37° C. Buffer B (122 mM NaCl, 3.3 mM KCl, 1.2 mM CaCl2, 0.4 mM MgSO4, 1.2 mM KH2 PO4, 25 mM Hepes, 10 mM glucose, pH 7.4).
The cells were then loaded with 0.5 μCi/ml of D-aspartate, and incubated at 37° C. for 30 min. Cells were then washed four times with Buffer B, and the last washing fluid was left on the cells. The plates were then placed on an orbital shaker and maintained at 37° C.
Baseline aspartate release levels (prior to drug treatment) were determined by incubating the cells with normal Buffer B (285 mOsm) for 15 minutes, while buffer was collected every 5 minutes.
After the buffer was collected from a well at the 15 minute mark, the next set of normal Buffer B added to that well contained a test compound at a known concentration; each compound was tested over a range of concentrations. Cells were then incubated for two 5 minute intervals with solutions of test compounds in normal Buffer B. In some tests which used buffers containing relatively high concentrations of a test drug with limited solubility in water, DMSO was added to the mixture to increase the solubility of the compound in water.
Beginning at the 25-minute mark, the cells were stimulated to begin releasing aspartate by loading a well with hypo-osmotic buffer, prepared by diluting Buffer B with an equal volume of distilled and deionized H2 O, resulting in an osmolarity of about 145 mOsm. This hypo-osmoticsolution caused the cells to begin taking in excess water, to try to reestablish the normal osmotic gradients that exist across the cell membranes. The water-induced swelling and stress then began to induce release of aspartate by the cells, and the amount of aspartate released by the swollen astrocyte cells was measured by removing the buffer every 5 minutes and testing it in a scintillation counter.

`CCC[C@]12CCC(=O)C=C1c1c(cc(OCC(=O)NCC(OC)OC)c(Cl)c1Cl)C2` [GERI-AmE1, R(+)-N-[2,2-(dimethoxy)-ethyl][(5,6-dichloro-2,3,9,9a-tetrahydro-3-oxo-9a-propyl-1H-fluoren-7-yl)oxy]acetamide]: the IC50 is 19.4 µM and the Comparative potency is recorded as 1,358%.

On to `CCC[C@]12CCC(=O)C=C1c1c(cc(OCC(=O)NCc3ccccc3)c(Cl)c1Cl)C2` [GERI-AmE3, R(+)-N-benzyl-[(5,6-dichloro-2,3,9,9a-tetrahydro-3-oxo-9a-propyl-1H-fluoren-7-yl)oxy]acetamide], for which the IC50 is 31.9 µM and the Comparative potency is on record as 826%.

In the case of `CCC[C@]12CCC(=O)C=C1c1c(cc(OCC(=O)NCc3ccccn3)c(Cl)c1Cl)C2` [GERI-AmE4, R(+)-N-[(2-pyridylmethyl][5,6-dichloro-2,3,9,9a-tetrahydro-3-oxo-9a-propyl-1H-fluoren-7-yl)oxy]acetamide], the IC50 was 11.6 µM and the Comparative potency is recorded as 2,272%.

As for `CCC[C@]12CCC(=O)C=C1c1c(cc(OCC(=O)NCCCn3ccnc3)c(Cl)c1Cl)C2` [GERI-AmE5, R(+)-N-[3-(1-imidazolyl)-propyl][(5,6-dichloro-2,3,9,9a-tetrahydro-3-oxo-9a-propyl-1H-fluoren-7-yl)oxy]acetamide], the IC50 was 39.8 µM, the “Fold potency versus L-644,711” value is listed as approximately 7 fold and the Comparative potency was 662%.

As to `CCC[C@]12CCC(=O)C=C1c1c(cc(OCC(CO)(CO)CO)c(Cl)c1Cl)C2` [GERI-E1, R-(+)-5,6-dichloro-7-[3-hydroxy-2,2-bis-(hydroxymethyl)propyloxy]-9a-propyl-2,3,9,9a-tetrahydro-1H-fluoren-3-one], the IC50 is 29.5 µM and the Comparative potency amounted to 893%.

With `CCC[C@]12CCC(=O)C=C1c1c(cc(OCc3ccccc3C(=O)O)c(Cl)c1Cl)C2` [GERI-E3, Sodium R(+)-2-[(5,6-dichloro-2 3,9,9a-tetrahydro-3-oxo-9a-propyl-1H-fluoren-7-yl)oxymethyl]benzoate], the IC50 was determined as 7.9 µM and the Comparative potency is on record as 3,335%.

With `CCC[C@]12CCC(=O)C=C1c1c(cc(OCc3cccc(C(=O)O)c3)c(Cl)c1Cl)C2` [GERI-E4, Sodium R(+)-3-[(5,6-dichloro-2,3 9,9a-tetrahydro-3-oxo-9a-propyl-1H-fluoren-7-yl)oxymethyl]benzoate], the IC50 worked out at 7.8 µM, the “Fold potency versus L-644,711” value is given as approximately 34 fold and the Comparative potency was 3,378%.

Consider `CCC[C@]12CCC(=O)C=C1c1c(cc(OCc3ccc(C(=O)O)cc3)c(Cl)c1Cl)C2` [GERI-E5, Sodium R(+)-4-[(5,6-dichloro-2,3,9,9a-tetrahydro-3-oxo-9a-propyl-1H-fluoren-7-yl)oxymethyl]benzoate], for which the IC50 worked out at 8 µM and the Comparative potency is recorded as 3,294%.

As for `CCC[C@]12CCC(=O)C=C1c1c(cc(OCOC(C)=O)c(Cl)c1Cl)C2` [GERI-E13, R-(+)-7-(acetoxymethoxy)-5,6-dichloro-9a-propyl-2,3,9,9a-tetrahydro-1H-fluoren-3-one], the IC50 amounted to 19.2 µM and the Comparative potency is 1,372%.

Regarding `CCC[C@]12CCC(=O)C=C1c1c(cc(OC(C)=O)c(Cl)c1Cl)C2` [GERI-Est1, R-(+)-7-acetoxy-5,6-dichloro-9a-propyl-2,3,9,9a-tetrahydro-1H-fluoren-3-one], the IC50 was 13.9 µM and the Comparative potency was 1,896%.

With `CCC[C@]12CCC(=O)C=C1c1c(cc(OCC(=O)O)c(Cl)c1Cl)C2` [L-644,711, R(+)-[(5,6-dichloro-2,3,9,9a-tetrahydro-3-oxo-9a-propyl-1H-fluoren-7-yl)oxy]acetic acid, reference compound], the IC50 worked out at 264 µM.
